{"source": "ChEMBL document CHEMBL1201862", "about": "“PubChem BioAssay data set” (2004)", "assay_in_all_cases": "NCI-60 cell line screen, 48 h", "key": {"[1]": {"system": "HOP-18"}, "[2]": {"system": "U-251"}, "[3]": {"system": "HCT-116"}, "[4]": {"system": "SN12C"}, "[5]": {"system": "OVCAR-4"}, "[6]": {"system": "M14"}, "[7]": {"system": "786-0"}, "[8]": {"system": "SR"}, "[9]": {"system": "OVCAR-3"}, "[10]": {"system": "SK-OV-3"}, "[11]": {"system": "SNB-78"}, "[12]": {"system": "UACC-257"}, "[13]": {"system": "UO-31"}, "[14]": {"system": "COLO 205"}, "[15]": {"system": "RXF 393"}, "[16]": {"system": "KM-20L2"}, "[17]": {"system": "NCI-H460"}, "[18]": {"system": "HT-29"}, "[19]": {"system": "IGROV-1"}, "[20]": {"system": "KM12"}, "[21]": {"system": "CAKI-1"}, "[22]": {"system": "ACHN"}, "[23]": {"system": "HOP-62"}, "[24]": {"system": "UACC-62"}, "[25]": {"system": "CCRF-CEM"}, "[26]": {"system": "SF-539"}, "[27]": {"system": "K562"}, "[28]": {"system": "SK-MEL-28"}, "[29]": {"system": "HCT-15"}, "[30]": {"system": "OVCAR-8"}, "[31]": {"system": "SW-620"}, "[32]": {"system": "RPMI-8226"}, "[33]": {"system": "SNB-75"}, "[34]": {"system": "A549"}, "[35]": {"system": "DLD-1"}, "[36]": {"system": "NCI-H23"}, "[37]": {"system": "A498"}, "[38]": {"system": "NCI-H226"}, "[39]": {"system": "DMS-114"}, "[40]": {"system": "EKVX"}, "[41]": {"system": "SF-295"}, "[42]": {"system": "SK-MEL-2"}, "[43]": {"system": "HL-60"}, "[44]": {"system": "HCC 2998"}, "[45]": {"system": "RXF 631"}, "[46]": {"system": "TK-10"}, "[47]": {"system": "LXFL 529"}, "[48]": {"system": "Malme-3M"}, "[49]": {"system": "MOLT-4"}, "[50]": {"system": "OVCAR-5"}, "[51]": {"system": "LOX IMVI"}, "[52]": {"system": "SF-268"}, "[53]": {"system": "HOP-92"}, "[54]": {"system": "DMS-273"}}, "note": "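Following 48 hours of exposure in 96-well plates, responses at five concentrations were used to interpolate endpoints linearly. The concentration for 50% growth inhibition is given as GI50.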 Activity calls are given as the source filed them. No stated cut-off is given here; in the data, active = GI50 up to about 1.1 µM and inactive = higher.", "data": [{"smiles": "COC(=O)C1=C(O)c2cc(OC)c(OC)c(OC)c2C(c2ccc3c(c2)OCO3)[C@@H]1C(=O)OC", "note": "(some centres undefined)", "values": [{"measurement": "GI50", "setting": "[1]", "value": "23.1 µM (inactive)"}, {"measurement": "GI50", "setting": "[2]", "value": "3.66 µM (inactive)"}, {"measurement": "GI50", "setting": "[3]", "value": "4.36 µM (inactive)"}, {"measurement": "GI50", "setting": "[4]", "value": "3.68 µM (inactive)"}, {"measurement": "GI50", "setting": "[5]", "value": "6.49 µM (inactive)"}, {"measurement": "GI50", "setting": "[6]", "value": "3.03 µM (inactive)"}, {"measurement": "GI50", "setting": "[7]", "value": "3.65 µM (inactive)"}, {"measurement": "GI50", "setting": "[8]", "value": "3.66 µM (inactive)"}, {"measurement": "GI50", "setting": "[9]", "value": "1.99 µM (inactive)"}, {"measurement": "GI50", "setting": "[10]", "value": "3.44 µM (inactive)"}, {"measurement": "GI50", "setting": "[11]", "value": "15.1 µM (inactive)"}, {"measurement": "GI50", "setting": "[12]", "value": "5.81 µM (inactive)"}, {"measurement": "GI50", "setting": "[13]", "value": "6.08 µM (inactive)"}, {"measurement": "GI50", "setting": "[14]", "value": "2.24 µM (inactive)"}, {"measurement": "GI50", "setting": "[15]", "value": "2.29 µM (inactive)"}, {"measurement": "GI50", "setting": "[16]", "value": "2.36 µM (inactive)"}, {"measurement": "GI50", "setting": "[17]", "value": "5.47 µM (inactive)"}, {"measurement": "GI50", "setting": "[18]", "value": "2.84 µM (inactive)"}, {"measurement": "GI50", "setting": "[19]", "value": "5.56 µM (inactive)"}, {"measurement": "GI50", "setting": "[20]", "value": "2.94 µM (inactive)"}, {"measurement": "GI50", "setting": "[21]", "value": "0.935 µM (active)"}, {"measurement": "GI50", "setting": "[22]", "value": "4.74 µM (inactive)"}, {"measurement": "GI50", "setting": "[23]", "value": "5.53 µM (inactive)"}, {"measurement": "GI50", "setting": "[24]", "value": "1.53 µM (inactive)"}, {"measurement": "GI50", "setting": "[25]", "value": "4.42 µM (inactive)"}, {"measurement": "GI50", "setting": "[26]", "value": "2.18 µM (inactive)"}, {"measurement": "GI50", "setting": "[27]", "value": "3.9 µM (inactive)"}, {"measurement": "GI50", "setting": "[28]", "value": "7.31 µM (inactive)"}, {"measurement": "GI50", "setting": "[29]", "value": 7.1, "unit": "µM"}, {"measurement": "GI50", "setting": "[30]", "value": "5.37 µM (inactive)"}, {"measurement": "GI50", "setting": "[31]", "value": "2.22 µM (inactive)"}, {"measurement": "GI50", "setting": "[32]", "value": "6.62 µM (inactive)"}, {"measurement": "GI50", "setting": "[33]", "value": "4.07 µM (inactive)"}, {"measurement": "GI50", "setting": "[34]", "value": "4.68 µM (inactive)"}, {"measurement": "GI50", "setting": "[35]", "value": "4.69 µM (inactive)"}, {"measurement": "GI50", "setting": "[36]", "value": "7.03 µM (inactive)"}, {"measurement": "GI50", "setting": "[37]", "value": "3.82 µM (inactive)"}, {"measurement": "GI50", "setting": "[38]", "value": "8.97 µM (inactive)"}, {"measurement": "GI50", "setting": "[39]", "value": "2.4 µM (inactive)"}, {"measurement": "GI50", "setting": "[40]", "value": "25.2 µM (inactive)"}, {"measurement": "GI50", "setting": "[41]", "value": "2.01 µM (inactive)"}, {"measurement": "GI50", "setting": "[42]", "value": "7.48 µM (inactive)"}, {"measurement": "GI50", "setting": "[43]", "value": "1.74 µM (inactive)"}, {"measurement": "GI50", "setting": "[44]", "value": "4.97 µM (inactive)"}, {"measurement": "GI50", "setting": "[45]", "value": "5.82 µM (inactive)"}, {"measurement": "GI50", "setting": "[46]", "value": "7.18 µM (inactive)"}, {"measurement": "GI50", "setting": "[47]", "value": "3.08 µM (inactive)"}, {"measurement": "GI50", "setting": "[48]", "value": "3.44 µM (inactive)"}, {"measurement": "GI50", "setting": "[49]", "value": "4.69 µM (inactive)"}, {"measurement": "GI50", "setting": "[50]", "value": "> 100 µM (inactive)"}, {"measurement": "GI50", "setting": "[51]", "value": "4.43 µM (inactive)"}, {"measurement": "GI50", "setting": "[52]", "value": "4.28 µM (inactive)"}, {"measurement": "GI50", "setting": "[53]", "value": "> 100 µM (inactive)"}, {"measurement": "GI50", "setting": "[54]", "value": "3.02 µM (inactive)"}]}]}
